By inhibition is commonly meant the share of the control response that was lost under treatment. What is called IC50 is the concentration that gives 50% inhibition.

One assay has as its target Mcl-1 (Homo sapiens, UniProt Q07820). The assay is described as follows: Inhibition of Mcl-1 (disruption of Mcl-1/Bim interaction). The format is binding. The note with it: for % Inhibition (25 μM) Mcl-1 / inhibition at 25 µM: compound at 25 μM; for % Inhibition (50 μM) Mcl-1 / inhibition at 50 µM: compound at 50 μM. The protocol:
(§1) In a subsequent study, a structurally diverse library of forty five thio acids and thirty eight sulfonyl azides (identified above) was screened in parallel against Mcl-1 and Bcl-XL using the above mentioned approach. Several potential hit combinations were identified (Table 3). All of these kinetic TGS hit compounds were synthesized (identified above and in Table 3). All the reactions were performed at 20-30 mg scale. The 9-fluorenylmethyl thioester was placed in a 2.0 mL vial and 3.5% DBU/dry DMF solution was added (per 1 μmol of thioester, 4.7 μL, of 3.5% DBU/dry DMF solution was added) and the reaction was stirred for one minute. Then the sulfonylazide (1 eq to thioester) was added to the reaction mixture and immediately bubbling was observed. After the reaction was completed (approximately one minute, monitored by LC-MS) water (200 μL) was added and the pH was adjusted to 7.0 using 1M HCl solution. The reaction mixture was extracted with DCM until there is no product in the aqueous layer (checked by TLC or LC-MS). The product was purified by flash chromatography. Testing of these acylsulfonamides has shown that the hit compounds disrupt the Bcl-XL/Bim or Mcl-1/Bim interaction (Table 3).

The target of another assay is Bcl-XL (Homo sapiens, UniProt Q07817). The assay is described as follows: Inhibition of Bcl-XL (disruption of Bcl-XL/Bim interaction). The class given is binding. The note with it: for % Inhibition (25 μM) Bcl-XL / inhibition at 25 µM: compound at 25 μM; for % Inhibition (50 μM) Bcl-XL / inhibition at 50 µM: compound at 50 μM. The protocol:
as §1

Sequence of Bcl-XL (Q07817 whole entry, species assumed): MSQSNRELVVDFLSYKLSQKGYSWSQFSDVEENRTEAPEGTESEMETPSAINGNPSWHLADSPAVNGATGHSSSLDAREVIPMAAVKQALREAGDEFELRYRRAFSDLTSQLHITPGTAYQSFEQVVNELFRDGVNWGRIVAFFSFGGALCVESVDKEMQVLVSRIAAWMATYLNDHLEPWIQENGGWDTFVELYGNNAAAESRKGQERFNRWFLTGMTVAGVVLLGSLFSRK
Sequence of Mcl-1 (Q07820 whole entry, species assumed): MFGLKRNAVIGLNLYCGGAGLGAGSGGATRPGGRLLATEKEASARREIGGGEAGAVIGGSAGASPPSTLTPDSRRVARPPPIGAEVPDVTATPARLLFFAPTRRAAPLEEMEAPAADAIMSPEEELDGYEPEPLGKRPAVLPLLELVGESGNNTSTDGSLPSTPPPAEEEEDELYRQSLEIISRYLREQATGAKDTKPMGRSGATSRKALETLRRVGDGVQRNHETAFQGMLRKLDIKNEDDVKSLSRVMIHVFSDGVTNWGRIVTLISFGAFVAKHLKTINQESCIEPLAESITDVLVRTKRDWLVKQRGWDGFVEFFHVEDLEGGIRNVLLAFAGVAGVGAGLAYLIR

`Cn1cc(C(=O)c2cccs2)c2cc(C(=O)NS(=O)(=O)c3ccc(CN(CCSc4ccccc4)Cc4ccc5c(c4)OCO5)cc3)ccc21` [SZ31TA45]: on Mcl-1, the “% Inhibition (25 μM) Mcl-1” value is recorded as 53.8% and the “% Inhibition (50 μM) Mcl-1” value is 40.2%. On Bcl-XL, the “% Inhibition (25 μM) Bcl-XL” value came to 7.2% and the “% Inhibition (50 μM) Bcl-XL” value is listed as less than 2.0%.
In the same order, the values of `Cn1cc(C(=O)C2CCCCC2)c2cc(C(=O)NS(=O)(=O)c3ccc(COc4ccc5c(=O)cc(-c6ccccc6)oc5c4)cc3)ccc21` [SZ14TA40] are 68.5%, 93.1%, 27.8% and 47.9%.
Regarding `COc1ccccc1-c1ccc(C(=O)NS(=O)(=O)c2ccc(-c3ccc(C(F)(F)F)cc3)cc2)cc1` [SZ16TA21], at Mcl-1, the “% Inhibition (25 μM) Mcl-1” value is listed as 26.0% and the “% Inhibition (50 μM) Mcl-1” value worked out at 80.9%.
In the same order, the values of `CCOc1ccc(-c2ccc3c(c2)c(C(=O)NS(=O)(=O)c2ccc(CNCCSc4ccccc4)cc2)cn3C)cc1F` [SZ6TA23] are less than 2.0% and less than 2.0%.
Turning to `[N-]=[N+]=NS(=O)(=O)c1ccc(CN(CCSc2ccccc2)Cc2ccc(S(=O)(=O)NC(=O)CCCN3C(=O)C(c4ccc(F)cc4F)=C(c4ccc(F)cc4F)C3=O)cc2)cc1` [SZ9TA20], at Mcl-1, the inhibition at 25 µM is 15.7% and the inhibition at 50 µM turned out to be 6.9%. For the same molecule, at Bcl-XL, the inhibition at 25 µM was less than 2% and the inhibition at 50 µM is less than 2%.
Take `COc1ccc(Cc2ccc(C(=O)NS(=O)(=O)c3ccc(CN(CCSc4ccccc4)Cc4c(F)cccc4Cl)cc3)cc2)c(OC)c1OC` [SZ15TA24]: at Mcl-1, the “% Inhibition (25 μM) Mcl-1” value turned out to be 54.4% and the “% Inhibition (50 μM) Mcl-1” value is recorded as 70.8%. Further, at Bcl-XL, the “% Inhibition (25 μM) Bcl-XL” value is 14.7% and the “% Inhibition (50 μM) Bcl-XL” value worked out at 18.9%.
Turning to `O=C(NS(=O)(=O)c1ccc(CN(CCSc2ccccc2)Cc2c(F)cccc2Cl)cc1)c1cccc2ccccc12` [SZ15TA7], the IC50 on Mcl-1 worked out at 15.4 µM.
Take `O=C(NS(=O)(=O)c1ccc(CN(CCSc2ccccc2)Cc2c(F)cccc2Cl)cc1)c1ccc(-c2ccc(F)cc2)cc1` [SZ15TA14]: at Mcl-1, the “% Inhibition (25 μM) Mcl-1” value was found to be 65.8% and the “% Inhibition (50 μM) Mcl-1” value is 58.8%. Moreover, at Bcl-XL, the “% Inhibition (25 μM) Bcl-XL” value was determined as 31.1% and the “% Inhibition (50 μM) Bcl-XL” value turned out to be 23.2%.
As to `Cc1nc(-c2ccccc2)sc1C(=O)NS(=O)(=O)c1ccc(-c2ccc(Oc3ccccc3)cc2)cc1` [SZ35TA3], at Mcl-1, the “% Inhibition (25 μM) Mcl-1” value worked out at 18.8% and the “% Inhibition (50 μM) Mcl-1” value was 87.2%.
Turning to `COc1cccc(CN(CCSc2ccccc2)Cc2ccc(S(=O)(=O)NC(=O)c3ccc4c(c3)c(C(=O)c3cccs3)cn4C)cc2)c1` [SZ17TA45], at Mcl-1, the “% Inhibition (25 μM) Mcl-1” value came out at 62.7% and the “% Inhibition (50 μM) Mcl-1” value was 34.5%. Besides, on Bcl-XL, the “% Inhibition (25 μM) Bcl-XL” value stood at 6.8% and the “% Inhibition (50 μM) Bcl-XL” value is less than 2.0%.
On to `O=C(NS(=O)(=O)c1ccc(CN(CCSc2ccccc2)Cc2ccc3c(c2)OCO3)cc1)c1cccc(NCCc2ccccc2)c1` [SZ31TA44], for which, at Mcl-1, the “% Inhibition (25 μM) Mcl-1” value is 14.9% and the “% Inhibition (50 μM) Mcl-1” value is reported as 36.5%. At Bcl-XL, the “% Inhibition (25 μM) Bcl-XL” value is reported as less than 2.0% and the “% Inhibition (50 μM) Bcl-XL” value was less than 2.0%.
Take `O=C(NS(=O)(=O)c1ccc(CN2CCN(c3ccccc3)CC2)cc1)c1ccc2c(ccn2Cc2ccc(C(F)(F)F)cc2C(F)(F)F)c1` [SZ1TA30]: on Mcl-1, the “% Inhibition (25 μM) Mcl-1” value is on record as 11.8% and the “% Inhibition (50 μM) Mcl-1” value was 2.6%. In addition, on Bcl-XL, the “% Inhibition (25 μM) Bcl-XL” value is reported as less than 2.0% and the “% Inhibition (50 μM) Bcl-XL” value is listed as less than 2.0%.
For `COc1ccc(Cc2ccc(C(=O)NS(=O)(=O)c3ccc(-c4ccc(Oc5ccccc5)cc4)cc3)cc2)c(OC)c1OC` [SZ35TA24], at Mcl-1, the “% Inhibition (25 μM) Mcl-1” value is given as 72.3% and the “% Inhibition (50 μM) Mcl-1” value came to 76.4%.
The like results for `NS(=O)(=O)c1ccc(CN(CCSc2ccccc2)Cc2ccc(S(=O)(=O)NC(=O)c3ccc4oc(-c5ccccc5)cc4c3)cc2)cc1` [SZ10TA41] were, in that order, 2.8% and 12.4%.
With `O=C(Cn1c2ccccc2c2ccccc21)NS(=O)(=O)c1ccc(CN(CCSc2ccccc2)Cc2ccc3c(c2)OCO3)cc1` [SZ31TA15], at Mcl-1, the IC50 worked out at 14 µM and the inhibition at 25 µM came out at 82%. Further, at Bcl-XL, the inhibition at 25 µM came out at 18.5% and the inhibition at 50 µM is 21.4%.
In the case of `[N-]=[N+]=NS(=O)(=O)c1ccc(CN(CCSc2ccccc2)Cc2ccc(S(=O)(=O)NC(=O)c3ccccc3)cc2)cc1` [SZ9TA1], the IC50 on Mcl-1 was found to be 19.8 µM. At Bcl-XL, the inhibition at 50 µM was determined as 79.5%.
Turning to `O=C(NS(=O)(=O)c1ccc(-c2ccc(Oc3ccccc3)cc2)cc1)c1cccc2ccccc12` [SZ35TA7], at Mcl-1, the “% Inhibition (25 μM) Mcl-1” value stood at 28.6% and the “% Inhibition (50 μM) Mcl-1” value worked out at 87.8%.
Regarding `O=C(Cn1c2ccccc2c2ccccc21)NS(=O)(=O)c1ccc(CN(CCSc2ccccc2)Cc2c(F)cccc2Cl)cc1` [SZ15TA15], at Mcl-1, the “% Inhibition (25 μM) Mcl-1” value turned out to be 42.2% and the “% Inhibition (50 μM) Mcl-1” value was 53.6%. In addition, on Bcl-XL, the “% Inhibition (25 μM) Bcl-XL” value was determined as 10.1% and the “% Inhibition (50 μM) Bcl-XL” value stood at 8.8%.
Take `O=C(NS(=O)(=O)c1ccc(CNc2cccc([N+](=O)[O-])c2)cc1)c1ccc(CN2C(=O)C(c3ccc(F)cc3F)=C(c3ccc(F)cc3F)C2=O)cc1` [SZ12TA42]: at Mcl-1, the IC50 worked out at 13.6 µM and the inhibition at 25 µM was found to be 77.3%. On Bcl-XL, the inhibition at 25 µM stood at 14% and the inhibition at 50 µM is 22.6%.
As for `COc1ccccc1-c1ccc(C(=O)NS(=O)(=O)c2ccc(CN(CCSc3ccccc3)Cc3ccc(S(N)(=O)=O)cc3)cc2)cc1` [SZ10TA21], on Mcl-1, the “% Inhibition (25 μM) Mcl-1” value is given as 52.3% and the “% Inhibition (50 μM) Mcl-1” value turned out to be 57.3%.
Consider `COc1cc(OC)cc(C(=O)NS(=O)(=O)c2ccc(CN(CCSc3ccccc3)Cc3c(F)cccc3Cl)cc2)c1` [SZ15TA5], for which, at Mcl-1, the IC50 came out at 13.4 µM and the “% Inhibition (50 μM) Mcl-1” value is greater than 99.0%. Besides, at Bcl-XL, the IC50 amounted to 53 µM and the “% Inhibition (50 μM) Bcl-XL” value worked out at 38.4%.
As for `CC1(C)CCN(c2ccc(C(=O)NS(=O)(=O)CCN3CCc4ccccc4C3)cc2)CC1` [SZ23TA2], at Mcl-1, the “% Inhibition (25 μM) Mcl-1” value stood at 4.5% and the “% Inhibition (50 μM) Mcl-1” value is on record as less than 2.0%.
Take `O=C(NS(=O)(=O)c1ccc(CN(CCSc2ccccc2)Cc2ccc3c(c2)OCO3)cc1)c1ccc(CCc2ccccn2)cc1` [SZ31TA17]: at Mcl-1, the IC50 stood at 16.8 µM, the inhibition at 25 µM was determined as 84.3% and the inhibition at 50 µM came out at 88.6%. Besides, at Bcl-XL, the IC50 was 31.3 µM, the inhibition at 25 µM is 40.2% and the inhibition at 50 µM is 77.7%.
In the case of `O=C(NS(=O)(=O)c1ccc(NCCSc2ccccc2)c([N+](=O)[O-])c1)c1ccc(CCc2ccccn2)cc1` [SZATA17], at Mcl-1, the concentration for half-maximal inhibition (IC50) amounted to 60.6 µM, the “% Inhibition (25 μM) Mcl-1” value worked out at 30.8% and the “% Inhibition (50 μM) Mcl-1” value turned out to be 44.7%. Further, at Bcl-XL, the half-inhibitory concentration (IC50) turned out to be 2.08 µM, the “% Inhibition (25 μM) Bcl-XL” value is 83.7% and the “% Inhibition (50 μM) Bcl-XL” value came to 90.6%.
Turning to `COc1ccccc1-c1ccc(C(=O)NS(=O)(=O)c2ccc(NCCSc3ccccc3)c([N+](=O)[O-])c2)cc1` [SZ4TA21], on Mcl-1, the “% Inhibition (25 μM) Mcl-1” value was 44.7% and the “% Inhibition (50 μM) Mcl-1” value was determined as 80.6%.
As for `CC(C)(C)c1ccc(-c2ccc(S(=O)(=O)NC(=O)c3ccc(-c4ccccn4)cc3)cc2)cc1` [SZ11TA25], at Mcl-1, the inhibition at 25 µM is 20.1% and the inhibition at 50 µM is 65.8%.
As to `CC1(C)CCN(c2ccc(C(=O)NS(=O)(=O)c3ccc(CNc4cccc([N+](=O)[O-])c4)cc3)cc2)CC1` [SZ12TA2], at Mcl-1, the “% Inhibition (25 μM) Mcl-1” value worked out at 7.1% and the “% Inhibition (50 μM) Mcl-1” value was determined as 54.1%.
In the same order, the values of `O=C(NS(=O)(=O)CCN1CCC(Cc2ccccc2)CC1)c1ccc2c(ccn2Cc2ccc(C(F)(F)F)cc2C(F)(F)F)c1` [SZ24TA30] are 18.1% and 11.4%.
For the molecule `CCOc1ccc(-c2ccc3c(c2)c(C(=O)NS(=O)(=O)c2ccc(CN4CCN(c5ccccc5)CC4)cc2)cn3C)cc1F` [SZ1TA23], on Mcl-1, the “% Inhibition (25 μM) Mcl-1” value was found to be 18.7% and the “% Inhibition (50 μM) Mcl-1” value was determined as 21.5%.
The like results for `COc1cc2c(cc1OC)C(c1ccccc1)N(Cc1ccc(S(=O)(=O)NC(=O)c3ccc(Cc4ccc(OC)c(OC)c4OC)cc3)cc1)CC2` (stereo not drawn) [SZ8TA24] were, in that order, 43.6% and 79.2%.
In the same order, the values of `COc1cccc(CN(CCSc2ccccc2)Cc2ccc(S(=O)(=O)NC(=O)c3ccc(Cc4ccc(OC)c(OC)c4OC)cc3)cc2)c1` [SZ17TA24] are 65.1% and 74.1%.
The like results for `O=C(NS(=O)(=O)c1ccc(-c2ccc(Oc3ccccc3)cc2)cc1)c1ccc(CCc2ccccn2)cc1` [SZ35TA17] were, in that order, 18.8% and 89.2%.
For the molecule `COc1cc2c(cc1OC)C(c1ccccc1)N(Cc1ccc(S(=O)(=O)NC(=O)c3ccc(N4CCC(C)(C)CC4)cc3)cc1)CC2` (stereo not drawn) [SZ8TA2], at Mcl-1, the “% Inhibition (25 μM) Mcl-1” value amounted to 14.8% and the “% Inhibition (50 μM) Mcl-1” value was found to be 24.9%.
On to `CCOc1ccc(-c2ccc3c(c2)c(C(=O)NS(=O)(=O)c2ccc(CNc4cccc([N+](=O)[O-])c4)cc2)cn3C)cc1F` [SZ12TA23], for which, on Mcl-1, the “% Inhibition (25 μM) Mcl-1” value is recorded as 6.1% and the “% Inhibition (50 μM) Mcl-1” value was determined as 21.5%.

For the origin of these results see patent US10551389B2, “Target binding molecules identified by kinetic target-guided synthesis” (UNIVERSITY OF SOUTH FLORIDA, priority 2013, dated 2020).
